Laboratory results: US12116356B2, “N-heterocyclic five-membered ring-containing capsid protein assembly inhibitor, pharmaceutical composition thereof, and use thereof” (CHIA TAI TIANQING PHARMACEUTICAL GROUP CO., LTD., priority 2018, dated 2024)

Columns and labels:
HBV DNA in HepAD38 cells = experiment: In vitro cell HBV DNA inhibitory activity (anti-HBV activity) in HepAD38 cells; type: cell-based; settings: Hepatitis B virus, 144 h; anti-HBV activity in HepAD38 cells, 6 days treatment, intracellular capsid HBV DNA by qPCR; read-out: EC50
Method: A bottle of HepG2.2.15 or HepAD38 cells in good exponential growth state was taken, washed once by adding 5 mL PBS, and then thereto was added 3 mL trypsin. After digesting at room temperature for 5 min, 2 mL trypsin was discarded, and then the sample was placed in a cell culture incubator and digested for 10 min. The cells were taken out from time to time and observed under a microscope (whether the cells were individually round and there was no adhesion between the cells). 10 mL complete medium was added to terminate the digestion. After pipetting into a single cell suspension, 10 μL of the cell suspension was taken out for cell counting with a cell counter, and then diluted with a complete medium and adjusted to a cell density of 1*10^5 cells/mL. Then the cell suspension was seeded at 1 mL/well in a 24-well plate with a multi-channel pipette (the 24-well plate was coated with 50 μg/mL Collagen I solution in advance), and cultured in a constant temperature CO2 incubator for 48 h.
Different compounds dissolved in DMSO were subjected to two-fold gradient dilution (10 concentrations in total) with complete medium. The compound was added, and fresh medium containing the compound was used to replace the spent medium every 72 hours. The cells were treated with the compound for 6 days. After the supernatant was siphoned off, 300 μL lysate (10 mM Tris-HCl, 1 mM EDTA, and 1% NP-40) was added to each well. After lysing at room temperature for 10 min, DNA was extracted, and HBV DNA in the intracellular viral capsid was measured by real-time fluorescence quantitative PCR. The inhibition rate was calculated based on the Ct value, and the EC50 value was calculated by the four-parameter method.

[1] = In vivo pharmacokinetics (PK) study in mice; settings: ICR mice, po 30 mg/kg
Method: ICR mice, weighing 18-20 g, were randomly divided into groups of three mice each after 3 to 5 days' acclimatization, and a series of the compounds were administered intragastrically to each group at a dose of 30 mg/kg. The test animals (ICR mice) were fasted for 12 hours before the administration and fed 4 hours after the administration. They were free to access water before and after the experiment. After the intragastric administration, about 0.1 mL of blood was collected from the orbits. Within 30 minutes after anticoagulation with EDTA-K2, the plasma was separated by centrifugation at 4° C. and 4000 rpm for 10 minutes. Immediately after collecting all plasma, it was stored at −20° C. for testing. 20 μL of the plasma sample to be tested and standard curve sample were pipetted, and then thereto was added 200 μL of an acetonitrile solution containing an internal standard (diazepam 20 mg/mL). The resulting mixture was oscillated and mixed uniformly for 5 min, and then centrifugated at 12000 rpm for 10 min. 75 μL supernatant was pipetted, and 75 μL ultrapure water was added thereto for dilution, and mixed evenly. 1 μL of the resulting solution was pipetted for LC/MS/MS determination.

## Cc1c(C(=O)Nc2ccc(F)c(C#N)c2)c(C)n(C)c1C(=O)C(=O)NC(C)(C)C [Example 13, 5-(2-(tert-butylamino)-2-oxoacetyl)-N-(3-cyano-4-fluorophenyl)-1,2,4-trimethyl-1H-pyrrole-3-carboxamide]
HBV DNA in HepAD38 cells
  EC50: < 10 nM
[1]; 0.25 h, 1 h, 6 h
  Liver AUC(0-6 h): 5834 ng/g
[1]; blood at 0.25 h, 1 h, 6 h
  Plasma AUC(0-6 h): 1759 ng/mL
[1]; mouse, liver/blood, AUC(0-6 h), read-out: Liver to blood ratio
  Kp: 3.32
